The source of these data is US20100137313A1 (ASTRAZENECA AB, priority 2008, published 2010).

SMILES strings stand for the structures.

S. pneumoniae Topoisomerase IV ATPase (ParE), sequence (Q59961 whole entry): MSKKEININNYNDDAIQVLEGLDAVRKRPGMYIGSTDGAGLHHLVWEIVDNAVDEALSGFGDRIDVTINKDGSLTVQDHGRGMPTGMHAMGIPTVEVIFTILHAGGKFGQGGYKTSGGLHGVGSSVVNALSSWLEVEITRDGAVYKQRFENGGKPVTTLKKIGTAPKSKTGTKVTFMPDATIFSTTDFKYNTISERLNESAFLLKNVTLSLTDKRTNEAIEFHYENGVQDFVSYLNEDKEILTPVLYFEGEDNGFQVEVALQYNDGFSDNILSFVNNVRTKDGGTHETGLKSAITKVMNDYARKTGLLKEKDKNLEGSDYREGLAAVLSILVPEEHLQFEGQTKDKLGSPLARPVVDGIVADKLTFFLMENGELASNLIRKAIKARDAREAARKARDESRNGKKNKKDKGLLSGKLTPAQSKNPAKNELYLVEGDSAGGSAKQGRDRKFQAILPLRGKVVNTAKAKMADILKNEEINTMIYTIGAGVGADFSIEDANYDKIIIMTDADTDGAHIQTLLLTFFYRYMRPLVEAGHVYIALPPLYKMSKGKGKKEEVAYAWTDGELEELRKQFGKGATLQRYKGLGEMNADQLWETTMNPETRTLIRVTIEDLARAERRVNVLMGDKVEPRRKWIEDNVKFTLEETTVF

For one experiment, the target named is S. pneumoniae Topoisomerase IV ATPase (ParE) (Streptococcus pneumoniae serotype 4, UniProt Q59961). The experiment in a line: S. pneumoniae Topoisomerase IV ATPase inhibition. The conditions noted are these: values marked * are an average of two or more data points, 13 µM. In kind it is biochemical. On the procedure:
S. pneumoniae Topoisomerase IV ATPase Inhibition Activity: Compounds may be tested for inhibition of S. pneumoniae ParE ATPase activity using an ammonium molybdate/malachite green-based phosphate detection assay (Lanzetta, P. A., L. J. Alvarez, P. S. Reinach, and O. A. Candia, 1979, 100: 95-97). Assays are performed in multiwell plates in 30 μl reactions containing: 20 mM Tris buffer pH 8.0, 50 mM ammonium acetate, 8.0 mM magnesium chloride, 0.5 mM ethylenediaminetetraacetic acid, 5% glycerol, 5 mM 1,4-Dithio-DL-threitol, 0.005% Brij-35, 5 μg/ml sheared salmon sperm DNA, 1.25 nM S. pneumoniae ParE, 160 μM ATP, and test compound in dimethylsulfoxide. Reactions are quenched with 30 μl of ammonium molybdate/malachite green detection reagent containing 1.2 mM malachite green hydrochloride, 8.5 mM ammonium molybdate tetrahydrate, and 1 M hydrochloric acid. Plates are read in an absorbance plate reader at 650 nm and percent inhibition values are calculated using dimethylsulfoxide (2%)-containing reactions as 0% inhibition and EDTA-containing ([…]) reactions as 100% inhibition controls. An IC50 measurement of compound potency for each compound can be determined from reactions performed in the presence of 10 different compound concentrations.
Many of the compounds of the invention were tested in an assay substantially similar to the assays described above for measuring the inhibition of E.coli GyrB ATPase, E. coli Topoisomerase IV ATPase, S. aureus GyrB ATPase, and S. pneumoniae Topoisomerase IV ATPase, and had IC50 values of <200 μM in one or more assays.
With `O=C(O)/C=C/c1cccc(-c2cnc(Nc3ccc(F)c(Cl)c3)nc2N[C@H]2CCOC2)c1` [Example 958], the “% Inh (13 μM) of S. pneumoniae Topoisomerase IV ATPase” value is 93%.

The same experiment, now with this note: values marked * are an average of two or more data points, read-out: % Inh (13 μM) of S. pneumoniae Topoisomerase IV ATPase.
As to `CN1CCN(CCn2cc(C(=O)O)c(=O)c3cc(-c4cnc(Nc5ccc(F)c(Cl)c5)nc4-n4ccc(C(F)(F)F)n4)ccc32)CC1` [Example 1071, 6-(2-(3-Chloro-4-fluorophenylamino)-4-(3-(trifluoromethyl)-1H-pyrazol-1-yl)pyrimidin-5-yl)-1-(2-(4-methylpiperazin-1-yl)ethyl)-4-oxo-1,4-dihydroquinoline-3-carboxylic acid], the inhibition at 13 µM was determined as 100%. On the same count and under the same terms, under `CC(C)Nc1nc(Nc2ccc(F)c(Cl)c2)ncc1-c1cncc(C(=O)O)c1` [Example 243, 5-[2-[(3-chloro-4-fluorophenyl)amino]-4-(propan-2-ylamino)pyrimidin-5-yl]pyridine-3-carboxylic acid] stands 83.5%; under `CN(C)CCCNc1nc(Nc2cc(C(F)(F)F)cc(C(F)(F)F)c2)ncc1-c1ccc(C(=O)O)s1` [Example 341, 5-(2-(3,5-bis(trifluoromethyl)phenylamino)-4-(3-(dimethylamino)propylamino)pyrimidin-5-yl) thiophene-2-carboxylic acid], 87.2%; under `COCCCNc1nc(Nc2ccc(F)c(Cl)c2)ncc1-c1nnn[nH]1` [Example 937, N2-(3-chloro-4-fluorophenyl)-N4-(3-methoxypropyl)-5-(1H-tetrazol-5-yl)pyrimidine-2,4-diamine], 17%. Turning to `CCn1cc(-c2cnc(Nc3cc(C)cc(OC)c3)nc2-n2ccc(C(F)(F)F)n2)cc(C(=O)O)c1=O` [Example 1172, 1-ethyl-5-{2-[(3-methoxy-5-methylphenyl)amino]-4-[3-(trifluoromethyl)-1H-pyrazol-1-yl]pyrimidin-5-yl}-2-oxo-1,2-dihydropyridine-3-carboxylic acid], the inhibition at 13 µM was determined as 100%. Same read-out and setting: in the case of `COc1ncc(-c2cnc(Nc3cccc(C(N)=O)c3)nc2-n2nc(C(F)(F)F)cc2C)cc1C(=O)O` [Example 723, 5-{2-[(3-carbamoylphenyl)amino]-4-[5-methyl-3-(trifluoromethyl)-1H-pyrazol-1-yl]pyrimidin-5-yl}-2-methoxypyridine-3-carboxylic acid] it was 94%; in that of `O=C(O)c1cncc(-c2cnc(Nc3ccc(F)c(Cl)c3)nc2N2CCCCC2)c1` [Example 275, 5-(2-(3-chloro-4-fluorophenylamino)-4-(piperidin-1-yl)pyrimidin-5-yl)nicotinic acid], 134%; in that of `CNc1ncc(-c2cnc(Nc3cc(OC)cc(OC)c3)nc2-n2ccc(C(F)(F)F)n2)cc1C(=O)O` [Example 586, 5-(2-(3,5-dimethoxyphenylamino)-4-(3-(trifluoromethyl)-1H-pyrazol-1-yl)pyrimidin-5-yl)-2-(methylamino)nicotinic acid], 100%. As for `COc1ncc(-c2cnc(Nc3cccc(C(N)=O)c3)nc2-n2ccc(C(F)(F)F)n2)cc1C(=O)O` [Example 722, 5-{2-[(3-carbamoylphenyl)amino]-4-[3-(trifluoromethyl)-1H-pyrazol-1-yl]pyrimidin-5-yl}-2-methoxypyridine-3-carboxylic acid], the inhibition at 13 µM stood at 93%. For `CN(C)CCCNc1nc(Nc2ccc(F)c(Cl)c2)ncc1-c1cncc(C#N)c1` [Example 15, 5-{2-(3-chloro-4-fluorophenylamino)-4-[3-(dimethylamino)propylamino]pyrimidin-5-yl}nicotinitrile], the inhibition at 13 µM is 100%. `COc1cc(Nc2ncc(-c3cc(C(=O)O)c(=O)n(CCS(C)(=O)=O)c3)c(-n3nc(C(F)(F)F)cc3C)n2)cc(OC)c1` [Example 1097, 5-(2-(3,5-Dimethoxyphenylamino)-4-(5-methyl-3-(trifluoromethyl)-1H-pyrazol-1-yl)pyrimidin-5-yl)-1-(2-(methylsulfonyl)ethyl)-2-oxo-1,2-dihydropyridine-3-carboxylic acid]: the inhibition at 13 µM amounted to 100%.

Regarding `COc1cc(Nc2ncc(-c3cnc(OC)c(-c4n[nH]c(=O)o4)c3)c(-n3ccc(C(F)(F)F)n3)n2)cc(OC)c1` [Example 807, 5-(5-{2-[(3,5-dimethoxyphenyl)amino]-4-[3-(trifluoromethyl)-1H-pyrazol-1-yl]pyrimidin-5-yl}-2-methoxypyridin-3-yl)-1,3,4-oxadiazol-2(3H)-one], the inhibition at 13 µM was 100%. The same measure, in the same setting: in the case of `COc1cc(Nc2ncc(-c3cnc(OC)c(C(=O)NS(C)(=O)=O)c3)c(-n3nc(C(F)(F)F)nc3C)n2)cc(OC)c1` [Example 1153, 5-(2-(3,5-dimethoxyphenylamino)-4-(5-methyl-3-(trifluoromethyl)-1H-1,2,4-triazol-1-yl)pyrimidin-5-yl)-2-methoxy-N-(methylsulfonyl)nicotinamide] it was 100%; in that of `CCOC(=O)c1cncc(-c2cnc(Nc3ccc(F)c(Cl)c3)nc2N2CCOC(CO)C2)c1` (stereo not drawn) [Example 978, Ethyl 5-(2-(3-chloro-4-fluorophenylamino)-4-(2-(hydroxymethyl)morpholino)pyrimidin-5-yl)nicotinate], 82%; in that of `COc1ncc(-c2cnc(Nc3cccc(Cl)c3)nc2-n2nc(C(F)(F)F)cc2C)cc1C(=O)O` [Example 743, 5-{2-[(3-chlorophenyl)amino]-4-[5-methyl-3-(trifluoromethyl)-1H-pyrazol-1-yl]pyrimidin-5-yl}-2-methoxypyridine-3-carboxylic acid], 94%. The same measure, in the same setting: under `COc1cc(Nc2ncc(-c3cnc(OC)c(C(=O)NS(C)(=O)=O)c3)c(-n3nc(C(F)(F)F)cc3C)n2)cc(C(F)(F)F)c1` [Example 902, 2-methoxy-5-(2-(3-methoxy-5-(trifluoromethyl)phenylamino)-4-(5-methyl-3-(trifluoromethyl)-1H-pyrazol-1-yl)pyrimidin-5-yl)-N-(methylsulfonyl)nicotinamide] stands 97%; under `COCCCNc1nc(Nc2ccc(F)c(Cl)c2)ncc1-c1ccc2sc(C(=O)OC)cc2c1` [Example 180, methyl 5-(2-(3-chloro-4-fluorophenylamino)-4-(3-methoxypropylamino)-pyrimidin-5-yl)benzo[b]thiopene-2-carboxylate], -56.9%; under `O=C(O)/C=C/c1cccc(-c2cnc(Nc3cccc4cc[nH]c34)nc2N2CCOCC2)c1` [Example 517, (2E)-3-{3-[2-(1H-indol-7-ylamino)-4-(morpholin-4-yl)pyrimidin-5-yl]phenyl}prop-2-enoic acid], 100%. For the compound `COc1cc(C)cc(Nc2ncc(-c3cc(C(=O)O)c(=O)n(C)c3)c(-n3nc(C(F)(F)F)cc3C)n2)c1` [Example 861, 5-{2-[(3-methoxy-5-methylphenyl)amino]-4-[5-methyl-3-(trifluoromethyl)-1H-pyrazol-1-yl]pyrimidin-5-yl}-1-methyl-2-oxo-1,2-dihydropyridine-3-carboxylic acid], the inhibition at 13 µM was found to be 100%. On the same count and under the same terms, under `CCOC(=O)c1cn(CCOC)c2ccc(-c3cnc(Nc4ccc(F)c(Cl)c4)nc3N3CCOCC3)cc2c1=O` [Example 175, ethyl 6-(2-(3-chloro-4-fluorophenylamino)-4-morpholinopyrimidin-5-yl)-1-(2-methoxyethyl)-4-oxo-1,4-dihydroquinoline-3-carboxylate] stands 80%.
